This note sets out measurements from patent US5298521A, “1,5-diphenyl-3-pyrazolylalkyl-N-hydroxydithiocaramates, compositions and use” (Ortho Pharmaceutical Corporation, priority 1993, dated 1994).

As usually defined, the IC50 is the concentration needed to halve the response being measured. By inhibition is commonly meant the percentage by which the read-out fell short of the control.

The target in test [1] is T1, 5-LO in intact RBL-1 cells (Rattus norvegicus, UniProt P12527).
T1 construct: endogenous in cells; host or cells: intact RBL-1 cells
T1 sequence (P12527 1-673): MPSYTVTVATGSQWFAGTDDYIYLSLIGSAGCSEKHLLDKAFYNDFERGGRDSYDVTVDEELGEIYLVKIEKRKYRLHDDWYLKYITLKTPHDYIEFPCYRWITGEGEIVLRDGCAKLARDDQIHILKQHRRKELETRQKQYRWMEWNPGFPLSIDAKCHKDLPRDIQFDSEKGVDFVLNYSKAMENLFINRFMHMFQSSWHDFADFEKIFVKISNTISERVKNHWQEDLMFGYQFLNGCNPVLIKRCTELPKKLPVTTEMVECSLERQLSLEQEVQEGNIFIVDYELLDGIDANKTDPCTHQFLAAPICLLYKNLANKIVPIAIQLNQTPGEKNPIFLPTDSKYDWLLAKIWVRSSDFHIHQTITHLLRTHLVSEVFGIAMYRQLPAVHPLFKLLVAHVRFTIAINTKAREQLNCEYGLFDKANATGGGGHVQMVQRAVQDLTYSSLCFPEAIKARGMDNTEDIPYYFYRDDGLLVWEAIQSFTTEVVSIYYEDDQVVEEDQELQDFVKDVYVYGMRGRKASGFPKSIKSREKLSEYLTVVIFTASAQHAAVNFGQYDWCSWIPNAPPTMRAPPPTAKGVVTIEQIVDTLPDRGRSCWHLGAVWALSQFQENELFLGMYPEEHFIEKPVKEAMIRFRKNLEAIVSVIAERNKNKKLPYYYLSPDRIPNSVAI
Kind of test: 5-LO inhibition in intact RBL-1 cells (Procedure III). The note with it: read-out: PROC. III IC50 5-LO. It counts as cell-based. On the procedure:
The ability to inhibit 5-LO and CO in intact RBL-1 cells was also evaluated. RBL-1 cells were maintained in culture in minimal essential medium (Bio*Whittaker, Walkersville, MD), containing 12.5% fetal calf serum, 10 mg/mL streptomycin, 10 I.U./mL penicillin G, […] gentamycin and 2 mM L-glutamine (Bio*Whittaker, Walkersville, MD). Cells were collected by centrifugation, washed once in HBSS, and resuspended at a concentration of 1×10^5 cells/mL. Cells were incubated in the presence of vehicle or drug then centrifuged at 800×g for 10 minutes at 4° C. The supernatant was removed by aspiration and the cells were resuspended in 0.5 mL of HBSS. The reaction was started by the addition of 20 μg/mL of calcium ionophore A-23187 (mixed calcium and magnesium salts, Calbiochem, La Jolla CA) and allowed to proceed for 15 minutes, then stopped by plunging the tubes into a slush ice bath. The conversion of AA to 5-LO products was initiated by the addition of 10 μL (50 uCi) of 1-^14 C-AA. Products were isolated by acidification and extraction, followed by thin layer chromatography analysis as described above. Radioactive areas corresponding to authentic 5-LO and CO products were quantitated by the Bioscan 2000 Imaging System.

Test [2] deals with T2, RBL-1 cell cyclooxygenase (Rattus norvegicus, UniProt Q63921).
T2 construct: the supernatant was saved as the source of enzymes; endogenous in cells; host or cells: RBL-1 rat basophilic leukemia cells, homogenate supernatant
T2 sequence (Q63921 27-602): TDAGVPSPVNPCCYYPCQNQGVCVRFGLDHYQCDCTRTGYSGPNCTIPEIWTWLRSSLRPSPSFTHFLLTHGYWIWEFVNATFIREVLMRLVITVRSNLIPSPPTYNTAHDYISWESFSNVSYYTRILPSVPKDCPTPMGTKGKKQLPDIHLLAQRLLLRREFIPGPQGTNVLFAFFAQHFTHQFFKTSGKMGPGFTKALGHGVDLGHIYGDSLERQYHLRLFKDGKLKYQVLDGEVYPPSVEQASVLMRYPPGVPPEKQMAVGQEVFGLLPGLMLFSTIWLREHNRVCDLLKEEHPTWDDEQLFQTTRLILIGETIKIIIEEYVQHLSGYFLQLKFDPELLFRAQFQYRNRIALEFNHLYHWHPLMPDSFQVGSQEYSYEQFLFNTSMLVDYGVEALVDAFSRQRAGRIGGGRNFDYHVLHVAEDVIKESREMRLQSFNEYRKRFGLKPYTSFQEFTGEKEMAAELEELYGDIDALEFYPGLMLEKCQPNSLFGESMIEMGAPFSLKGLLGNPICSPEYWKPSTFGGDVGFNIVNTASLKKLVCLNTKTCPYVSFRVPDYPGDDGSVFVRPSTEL
Description: RBL-1 cell cyclooxygenase, cell homogenate supernatant (Procedure II). It counts as biochemical. The note with it: RBL-1 homogenate; for inhibition at 3 µM: read-out: PROC. II % INHIBITION CO; for IC50: read-out: PROC. II IC50 CO. On the procedure: RBL-1 cell 5-lipoxygenase and cyclooxygenase
Rat basophilic leukemia cells (RBL-1; 5×10^7 viable cells/mL) were disrupted by homogenization on ice (four 20 sec bursts) with a Brinkman polytron. Complete cell breakage was verified microscopically. The homogenate was then centrifuged at 10,000×g for 48 minutes at 4° C. The pellet was discarded and the supernatant was saved as the source of enzymes. The supernatant was pre-incubated for five minutes at 37° C. in the presence of 2 mM of CaCl2 and compound or vehicle (1% DMSO). The conversion of AA into 5-LO products was initiated by adding 10 μL (50 μCi) of 1-^14 C-AA to each tube and incubated at 37° C. for 20 minutes. The reaction was stopped by adjusting the pH of each sample to 3 to 3.5 with 2M formic acid. Samples were extracted with three volumes of chloroform to isolate the products of 5-LO formed during the reaction. Fractions were dried under nitrogen, then resuspended in 40 μL of chloroform and spotted onto silica gel HL plates. The plates were developed in A-9 solvent. The dried plates were analyzed using a Bioscan Imaging TLC scanner to determine the percentage of radiolabelled AA converted to 5-HETE in each sample.

Consider `COc1ccc(-n2nc(CSC(=S)N(O)C(C)C)cc2-c2ccc(Cl)cc2)cc1` [1-B], for which the IC50 in test [1] came out at 7000 nM. Besides, in test [2], the inhibition at 3 µM is 100% and the IC50 was 8070 nM.

In the case of `COc1ccc(-n2nc(CSC(=S)N(C)O)c(Cl)c2-c2ccc(Cl)cc2)cc1` [1-C], in test [1], the half-inhibitory concentration (IC50) came out at 240 nM. For the same molecule, the inhibition at 3 µM in test [2] was determined as 75%.

`COc1ccc(-n2nc(CSC(=S)N(O)C(C)C)c(Cl)c2-c2ccc(Cl)cc2)cc1` [1-D]: in test [2], the inhibition at 3 µM is 0% and the half-maximal inhibitory concentration (IC50) was 1670 nM.

On to `COc1ccc(-n2nc(CSC(=S)N(O)C(C)C)c(Br)c2-c2ccc(Cl)cc2)cc1` [1-E], for which, in test [1], the IC50 came to 2800 nM. Also, in test [2], the inhibition at 3 µM worked out at 0% and the IC50 was found to be 1960 nM.

Consider `COc1ccc(-n2nc(CSC(=S)N(O)C(C)C)cc2-c2ccc(C)cc2)cc1` [1-G], for which, in test [1], the concentration for half-maximal inhibition (IC50) was 5600 nM. Moreover, in test [2], the inhibition at 3 µM turned out to be 30% and the IC50 was determined as 30 nM.

For `COc1ccc(-n2nc(CSC(=S)N(C)O)c(Cl)c2-c2ccc(C)cc2)cc1` [1-H], the 50% inhibitory concentration (IC50) in test [1] amounted to 670 nM. In addition, in test [2], the inhibition at 3 µM was determined as 95%.
